Laboratory results: patent US20230107770A1, “METHOD OF ENHANCING IMMUNOTHERAPY USING ER STRESS PATHWAY INHIBITORS” (H. LEE MOFFITT CANCER CENTER AND RESEARCH INSTITUTE, INC., priority 2020, published 2023)

Assays:
[1] = tested on: FSHR+-ID8-Defb29/Vegfa ovarian tumors; assay: ER stress-targeting therapy combined with FSH-CER T cells in ovarian tumor-bearing mice; type: in vivo; conditions: MKC8866 i.p. 300 mg/kg or AMG-44 i.p. 12 mg/kg daily for one week; FSH-CER T cells days 7 and 14
Protocol: The role of the PERK-Chop in the expansion of tumor TRM cells using conditional T cell Chop-null mice was evaluated. In agreement with the inhibitory effect of Chop in TRM development, higher frequency of TRM cells was detected in tumors from T cell-Chop^KO mice compared to controls (FIG. 23A). Next, we tested the effect of the inhibition of PERK (AMG-44) and IRE 1α (MKC8866) during the expansion of IL-2-supplemented human FSH-CER T cells. […] Also, we evaluated the therapeutic effect of the combination of ER stress-targeting therapy and FSH-CER. […]
Activation of the UPR in cancer cells mediates adaptation processes in the TME, whereas UPR priming in tumor-myeloid cells promotes their immunoregulatory activity. […] As main readouts of therapeutic efficacy, we will monitor tumor burden, overall survival, and tumor CER-T cell infiltration, persistence, and cytotoxic capacity (Exp. C.2.1.1). […] Additionally, we will sort DCs and MDSC from tumor sites and lymphoid organs to quantify the expression of ER stress gene markers, their ability to impair T cell proliferation and IFNγ production, and the levels of the UPR-related immunoinhibitory factors IL-6, PGE2, Cox-2, mPGES-1, and Arginase I. All required methods are established by our groups. […]

B16 tumors = assay: s.c. B16 melanoma tumor model in mice; type: in vivo
murine BM-MDSC = assay: In vitro suppression assay with murine BM-MDSC; type: cell-based, mouse
Protocol: Mouse BM-MDSC were generated after culturing BM precursors with GM-CSF and G-CSF (20 ng/ml each) for 4 days. In vitro generated MDSC were treated with either LLC tumor explant supernatants (TES, since day 0) or Thaps (200 nM, for the last 24 hours of culture). Human BM-MDSC were developed after culturing BM or peripheral blood precursors from healthy donors with GM-CSF and IL-6 (10 ng/ml each) for a period of 6 days (Thevenot et al., 2014). To induce UPR activation, MDSC were treated with either supernatants from renal cell carcinoma cells 786-0 (hTES) for 6 days (Rodriguez et al., 2009) or Thaps during the last 24 hours before collection (200 nM). In some experiments, MDSC were pre-incubated for 3 hours with Resveratrol (100 μM, Sigma-Aldrich), D,L-Sulphoraphane (20 μM), AMG-44 (5 μM), or TUDCA (500 nM) before treating with Thaps.
(§1) Murine BM-MDSC (ratio 1:1/8) or tumor-MDSC (ratio 1:1/4) were co-cultured with negatively selected CD3^+ T cells in a 96 well plate bound α-CD3 and α-CD28 (1 μg/ml each, eBioscience) for 3 days. T cell proliferation was assessed with Carboxyfluorescein succinimidyl ester (CFSE) or Cell-trace violet (Invitrogen) dye dilution detected by flow cytometry. For human studies, MDSC were co-cultured with enriched CD3^+ T cells activated with soluble α-CD3 (1 μg/ml, clone OKT3) and α-CD28 (0.5 μg/ml, clone L293) for 3 days in a 96 well plate bound with goat anti-mouse IgG (10 μg/ml). Results are expressed as percentage of proliferating T cells, determined by the dilution of fluorescence compared with non-stimulated T cells.

tumor-MDSC = assay: Ex vivo suppression assay: tumor-MDSC co-cultured with primed CFSE-labeled T cells; type: cell-based, mice; conditions: tumor-MDSC (1:1/4) from B16-bearing mice; AMG-44 12 mg/kg
Protocol: CD3^+ T cells were enriched using mouse or human T cell negative selection kits (MagniSort, Invitrogen) from the spleen and lymph nodes of C57BL/6 mice; or from purchased human buffy-coat units (One-Blood, Tampa, Fla.). Purity ranged between 95% and 99% as tested by flow cytometry. For antigen-specific priming studies, CD8^+ T cells were enriched using negative selection kits from the spleens of OT-I mice previously activated with OVA257-264 (SIINFEKL) for 48 hours. Tumor-MDSC were isolated from cellular suspensions of digested tumors followed by positive selection (MojoSort Streptavidin Nanobeads, Biolegend) using anti-Gr1 (Clone RB6-8C5, eBioscience) or anti-CD11b-biotinylated antibodies (Clone M1/70, StemCell Technologies, Vancouver). Also, M-MDSC (CD11b^+Gr1^+Ly6G^lowLy6C^high), PMN-MDSC (CD11b^+Gr1^+Ly6G^+Ly6C^low), macrophages (CD11b^+Gr1^negF4/80^+CD11c^neg), and myeloid DCs (CD11b^+Gr1^negF4/80^negCD11c^+) were sorted from tumors in a FACSAriaII (BD Biosciences).
as §1

## Cc1ccc2cc(-c3c(C)ccc(C(=O)c4c(-c5ccccc5)n(C)n(-c5ccccc5)c4=O)c3N)ccc2n1 [AMG-44]
[1]
  survival of hosts receiving FSH-CER T cells plus inhibitor: Prolonged survival
B16 tumors; B16-bearing mice, AMG-44 12 mg/kg plus 250 μg anti-PD-L1 every 3rd day
  combination with anti-PD-L1 immunotherapy: synergized with anti-PD-L1 immunotherapy
B16 tumors; B16, AMG-44 12 mg/kg
  therapeutic anti-tumor action in Eif2ak3^KO-Lyz2 mice: not in Eif2ak3^KO-Lyz2 counterparts
B16 tumors; B16, AMG-44 12 mg/kg, Eif2ak3^Flox mice
  therapeutic anti-tumor action in PERK-competent mice: detected in PERK-competent mice
B16 tumors; B16, daily i.p. GSK2606414 25 mg/kg or AMG-44 12 mg/kg from day 7
  tumor growth: delayed tumor growth
Murine BM-MDSC; BM-MDSC (1:1/8) exposed 3 hours to 5 μM AMG-44
  ability of Thaps-treated BM-MDSC to impair T cell proliferation: overcame the ability of Thaps-treated BM-MDSC to impair T cell proliferation
Murine BM-MDSC; control BM-MDSC exposed 3 hours to 5 μM AMG-44
  MDSC-baseline activity: without affecting MDSC-baseline activity
tumor-MDSC
  immunoinhibitory activity of tumor-MDSC: impaired the immunoinhibitory activity of tumor-MDSC
